Patent US20230117470A1, “SUBSTITUTED PYRAZOLE COMPOUNDS AS TOLL RECEPTOR INHIBITORS” (BRISTOL-MYERS SQUIBB COMPANY, priority 2019, published 2023)

Assays:
Format in all cases: cell-based
human TLR7 = molecular target: T1, human TLR7 (Homo sapiens, UniProt Q9NYK1); test: TLR7 inhibition reporter assay (HEK-Blue cells, SEAP reporter, gardiquimod stimulation); details: HEK-Blue cells overexpressing human TLR7, SEAP reporter, gardiquimod 7.5 μM
T1 construct: host or cells: HEK-Blue cells
T1 sequence (Q9NYK1 27-1049): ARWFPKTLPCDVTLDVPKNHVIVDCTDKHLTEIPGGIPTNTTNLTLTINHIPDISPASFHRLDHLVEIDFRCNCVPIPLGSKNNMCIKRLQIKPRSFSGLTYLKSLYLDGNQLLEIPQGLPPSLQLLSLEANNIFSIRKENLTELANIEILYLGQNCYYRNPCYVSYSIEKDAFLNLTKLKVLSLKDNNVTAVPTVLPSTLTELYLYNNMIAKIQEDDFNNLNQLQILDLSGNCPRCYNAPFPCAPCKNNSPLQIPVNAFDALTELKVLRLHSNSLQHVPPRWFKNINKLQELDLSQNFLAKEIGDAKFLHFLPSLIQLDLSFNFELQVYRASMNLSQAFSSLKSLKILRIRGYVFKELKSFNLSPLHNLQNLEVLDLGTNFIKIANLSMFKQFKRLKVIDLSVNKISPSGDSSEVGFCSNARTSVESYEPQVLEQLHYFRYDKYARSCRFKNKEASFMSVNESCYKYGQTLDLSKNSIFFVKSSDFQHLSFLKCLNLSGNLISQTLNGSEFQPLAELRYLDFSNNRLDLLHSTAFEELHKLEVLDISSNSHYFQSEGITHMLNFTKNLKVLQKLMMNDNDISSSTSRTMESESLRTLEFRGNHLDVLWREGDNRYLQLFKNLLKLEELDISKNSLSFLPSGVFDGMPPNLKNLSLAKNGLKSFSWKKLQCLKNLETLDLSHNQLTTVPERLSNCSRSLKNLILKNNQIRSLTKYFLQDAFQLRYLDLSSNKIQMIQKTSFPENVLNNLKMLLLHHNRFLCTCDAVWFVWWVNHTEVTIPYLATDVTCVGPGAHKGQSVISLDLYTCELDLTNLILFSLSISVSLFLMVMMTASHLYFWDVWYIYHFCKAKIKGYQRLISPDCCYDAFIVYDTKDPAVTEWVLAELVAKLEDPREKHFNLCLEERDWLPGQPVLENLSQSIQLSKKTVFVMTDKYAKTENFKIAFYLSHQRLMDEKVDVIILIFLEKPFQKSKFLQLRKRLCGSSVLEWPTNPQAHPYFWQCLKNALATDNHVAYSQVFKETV
Experimental: (§1) TLR7/8/9 Inhibition Reporter Assays
(§2) HEK-Blue™-cells (Invivogen) overexpressing human TLR7, TLR8 or TLR9 receptors were used for screening inhibitors of these receptors using an inducible SEAP (secreted embryonic alkaline phosphatase) reporter gene under the control of the IFN-β minimal promoter fused to five NF-κB and AP-1-binding sites. Briefly, cells are seeded into Greiner 384 well plates (15000 cells per well for TLR7, 20,000 for TLR8 and 25,000 for TLR9) and then treated with test compounds in DMSO to yield a final dose response concentration range of 0.05 nM-50 μM. After a 30 minute compound pre-treatment at room temperature, the cells are then stimulated with a TLR7 ligand (gardiquimod at a final concentration of 7.5 μM), TLR8 ligand (R848 at a final concentration of 15.9 μM) or TLR9 ligand (ODN2006 at a final concentration of 5 nM) to activate NF-κB and AP-1 which induce the production of SLA After a 22 hour incubation at 37° C., […], SEAP levels are determined with the addition of HEK-Blue™ Detection reagent (Invivogen), a cell culture medium that allows for detection of SLAP, according to manufacturer's specifications. The percent inhibition is determined as the % reduction in the HEK-Blue signal present in wells treated with agonist plus DMSO alone compared to wells treated with a known inhibitor.

human TLR8 = molecular target: T2, human TLR8 (Homo sapiens, UniProt Q9NR97); test: TLR8 inhibition reporter assay (HEK-Blue cells, SEAP reporter, R848 stimulation); details: HEK-Blue cells overexpressing human TLR8, SEAP reporter, R848 15.9 μM
T2 construct: host or cells: HEK-Blue cells
T2 sequence (Q9NR97 27-1041): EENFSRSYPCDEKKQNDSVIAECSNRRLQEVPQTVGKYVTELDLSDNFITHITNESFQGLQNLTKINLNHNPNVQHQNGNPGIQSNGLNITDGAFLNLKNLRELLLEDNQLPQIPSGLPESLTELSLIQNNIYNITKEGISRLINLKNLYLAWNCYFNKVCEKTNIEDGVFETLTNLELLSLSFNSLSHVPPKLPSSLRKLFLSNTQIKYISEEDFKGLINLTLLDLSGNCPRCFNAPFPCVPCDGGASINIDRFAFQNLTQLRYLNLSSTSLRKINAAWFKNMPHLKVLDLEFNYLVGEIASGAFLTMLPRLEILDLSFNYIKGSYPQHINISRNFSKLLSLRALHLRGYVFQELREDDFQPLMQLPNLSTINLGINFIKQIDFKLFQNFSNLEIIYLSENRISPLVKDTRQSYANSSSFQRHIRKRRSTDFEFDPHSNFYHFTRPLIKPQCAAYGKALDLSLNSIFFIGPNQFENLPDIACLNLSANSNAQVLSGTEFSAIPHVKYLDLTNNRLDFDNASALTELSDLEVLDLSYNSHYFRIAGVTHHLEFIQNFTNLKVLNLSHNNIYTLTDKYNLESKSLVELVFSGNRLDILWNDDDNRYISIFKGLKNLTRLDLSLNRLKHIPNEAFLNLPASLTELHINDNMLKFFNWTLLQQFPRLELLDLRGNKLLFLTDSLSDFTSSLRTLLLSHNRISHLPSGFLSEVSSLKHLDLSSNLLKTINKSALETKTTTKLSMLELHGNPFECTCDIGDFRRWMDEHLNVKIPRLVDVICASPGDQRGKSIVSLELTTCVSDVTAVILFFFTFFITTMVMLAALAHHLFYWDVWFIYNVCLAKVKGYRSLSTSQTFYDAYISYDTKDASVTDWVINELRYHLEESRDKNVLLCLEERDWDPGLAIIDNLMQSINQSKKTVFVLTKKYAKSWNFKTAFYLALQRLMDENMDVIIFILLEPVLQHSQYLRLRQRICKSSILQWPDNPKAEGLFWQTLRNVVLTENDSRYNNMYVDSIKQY
Experimental: as §1, §2

human TLR9 = molecular target: T3, human TLR9 (Homo sapiens, UniProt Q9NR96); test: TLR9 inhibition reporter assay (HEK-Blue cells, SEAP reporter, ODN2006 stimulation); details: HEK-Blue cells overexpressing human TLR9, SEAP reporter, ODN2006 5 nM
T3 construct: host or cells: HEK-Blue cells
T3 sequence (Q9NR96 26-1032): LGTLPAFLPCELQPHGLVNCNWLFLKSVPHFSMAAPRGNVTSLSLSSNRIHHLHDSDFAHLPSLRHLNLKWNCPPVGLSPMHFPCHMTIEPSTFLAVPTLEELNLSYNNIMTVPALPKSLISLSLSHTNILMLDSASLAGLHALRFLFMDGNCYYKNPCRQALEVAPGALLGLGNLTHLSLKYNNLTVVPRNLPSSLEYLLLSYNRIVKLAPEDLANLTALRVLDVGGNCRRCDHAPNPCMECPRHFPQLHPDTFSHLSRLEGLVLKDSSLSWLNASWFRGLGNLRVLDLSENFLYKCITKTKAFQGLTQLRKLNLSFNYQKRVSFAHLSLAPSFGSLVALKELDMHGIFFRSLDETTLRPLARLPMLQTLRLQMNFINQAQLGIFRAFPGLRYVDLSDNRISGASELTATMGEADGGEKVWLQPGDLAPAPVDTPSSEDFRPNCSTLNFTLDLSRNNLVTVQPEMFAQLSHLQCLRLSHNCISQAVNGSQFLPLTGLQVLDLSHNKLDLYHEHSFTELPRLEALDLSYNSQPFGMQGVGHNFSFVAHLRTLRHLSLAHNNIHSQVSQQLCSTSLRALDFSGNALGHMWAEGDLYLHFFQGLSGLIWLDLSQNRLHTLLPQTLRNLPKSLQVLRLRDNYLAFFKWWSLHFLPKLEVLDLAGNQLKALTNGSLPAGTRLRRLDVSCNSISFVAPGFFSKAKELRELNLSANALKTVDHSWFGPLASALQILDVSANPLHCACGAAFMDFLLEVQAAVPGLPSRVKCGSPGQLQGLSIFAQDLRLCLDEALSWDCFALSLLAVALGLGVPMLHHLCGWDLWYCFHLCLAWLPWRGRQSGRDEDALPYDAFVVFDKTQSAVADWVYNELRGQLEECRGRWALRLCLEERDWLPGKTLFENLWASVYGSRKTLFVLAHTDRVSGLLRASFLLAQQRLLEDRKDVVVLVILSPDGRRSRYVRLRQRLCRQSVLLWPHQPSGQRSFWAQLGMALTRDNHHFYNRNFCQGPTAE
Experimental: as §1, §2

## Cc1cc(-c2[nH]nc(C3CCC(NCC(F)F)CC3)c2C(C)C)cn2ncnc12 (single isomer, unassigned) [Example 279, N-(2,2-difluoroethyl)-4-(4-isopropyl-5-(8-methyl-[1,2,4]triazolo[1,5-a]pyridin-6-yl)-1H-pyrazol-3-yl)cyclohexan-1-amine]
Human TLR7
  IC50: 11 nM
Human TLR8
  IC50: 1.08 nM
Human TLR9
  IC50: 23900 nM

## Cc1cc(-c2[nH]nc(C3CCC(NCC4(C)COC4)CC3)c2C(C)C)cn2ncnc12 (single isomer, unassigned) [Example 280]
Human TLR7
  IC50: 1.26 nM
Human TLR8
  IC50: 0.73 nM
Human TLR9
  IC50: 4960 nM

## Cc1cc(-c2[nH]nc(C3CCC(NCC4(C)COC4)CC3)c2C(C)C)cn2ncnc12 (single isomer, unassigned) [Example 281]
Human TLR7
  IC50: 9.49 nM
Human TLR8
  IC50: 0.45 nM
Human TLR9
  IC50: 42600 nM

## CCN(C)C1CCC(c2n[nH]c(-c3cc(C)c4ncnn4c3)c2C(C)C)CC1 (single isomer, unassigned) [Example 282]
Human TLR7
  IC50: 29.8 nM
Human TLR8
  IC50: 5.33 nM
Human TLR9
  IC50: > 50000 nM

## CCN(C)C1CCC(c2n[nH]c(-c3cc(C)c4ncnn4c3)c2C(C)C)CC1 (single isomer, unassigned) [Example 283]
Human TLR7
  IC50: 18.8 nM
Human TLR8
  IC50: 1.7 nM
Human TLR9
  IC50: > 50000 nM

## Cc1cc(-c2[nH]nc(C3CCC(NCCN(C)C)CC3)c2C(C)C)cn2ncnc12 (single isomer, unassigned) [Example 284]
Human TLR7
  IC50: 9.6 nM
Human TLR8
  IC50: 5.12 nM
Human TLR9
  IC50: > 50000 nM

## Cc1cc(-c2[nH]nc(C3CCC(NCCN(C)C)CC3)c2C(C)C)cn2ncnc12 (single isomer, unassigned) [Example 285]
Human TLR7
  IC50: 7.7 nM
Human TLR8
  IC50: 2.71 nM
Human TLR9
  IC50: > 50000 nM

## Cc1cc(-c2[nH]nc(C3CCC(N4CCN(C)CC4)CC3)c2C(C)C)cn2ncnc12 (single isomer, unassigned) [Example 286]
Human TLR7
  IC50: 25.6 nM
Human TLR8
  IC50: 14.6 nM
Human TLR9
  IC50: > 50000 nM

## Cc1cc(-c2[nH]nc(C3CCC(N4CCN(C)CC4)CC3)c2C(C)C)cn2ncnc12 (single isomer, unassigned) [Example 287]
Human TLR7
  IC50: 13.3 nM
Human TLR8
  IC50: 0.54 nM
Human TLR9
  IC50: 29200 nM

## Cc1cc(-c2[nH]nc(C3CCC(NC4CCN(C(C)C)CC4)CC3)c2C(C)C)cn2ncnc12 (single isomer, unassigned) [Example 288]
Human TLR7
  IC50: 15.2 nM
Human TLR8
  IC50: 0.52 nM
Human TLR9
  IC50: 14200 nM

## Cc1cc(-c2[nH]nc(C3CCC(NC4CCN(C(C)C)CC4)CC3)c2C(C)C)cn2ncnc12 (single isomer, unassigned) [Example 289]
Human TLR7
  IC50: 5.19 nM
Human TLR8
  IC50: 0.97 nM
Human TLR9
  IC50: 19700 nM

## Cc1cc(-c2[nH]nc(C3CCC(N4CCOCC4)CC3)c2C(C)C)cn2ncnc12 (single isomer, unassigned) [Example 290]
Human TLR7
  IC50: 8.56 nM
Human TLR8
  IC50: 1.09 nM
Human TLR9
  IC50: 22100 nM

## Cc1cc(-c2[nH]nc(C3CCC(N4CCOCC4)CC3)c2C(C)C)cn2ncnc12 (single isomer, unassigned) [Example 291]
Human TLR7
  IC50: 7.65 nM
Human TLR8
  IC50: 0.39 nM
Human TLR9
  IC50: 16800 nM

## Cc1cc(-c2[nH]nc(C3CCC(N4CCC(N(C)C)CC4)CC3)c2C(C)C)cn2ncnc12 (single isomer, unassigned) [Example 292]
Human TLR7
  IC50: 3.18 nM
Human TLR8
  IC50: 0.46 nM
Human TLR9
  IC50: 7520 nM

## Cc1cc(-c2[nH]nc(C3CCC(N4CCC(N(C)C)CC4)CC3)c2C(C)C)cn2ncnc12 (single isomer, unassigned) [Example 293]
Human TLR7
  IC50: 2.98 nM
Human TLR8
  IC50: 0.38 nM
Human TLR9
  IC50: 6650 nM

## CNC1CCC(c2n[nH]c(-c3cc(C)c4ncnn4c3)c2C(C)C)CC1 (single isomer, unassigned) [Example 294]
Human TLR7
  IC50: 7.97 nM
Human TLR8
  IC50: 0.42 nM
Human TLR9
  IC50: 8990 nM

## CNC1CCC(c2n[nH]c(-c3cc(C)c4ncnn4c3)c2C(C)C)CC1 (single isomer, unassigned) [Example 295]
Human TLR7
  IC50: 4.94 nM
Human TLR8
  IC50: 0.28 nM
Human TLR9
  IC50: 9710 nM

## Cc1cc(-c2[nH]nc(C3CCC(N(C)C(=O)C4CN(C)C4)CC3)c2C(C)C)cn2ncnc12 (single isomer, unassigned) [Example 302]
Human TLR7
  IC50: 9.44 nM
Human TLR8
  IC50: 14.2 nM
Human TLR9
  IC50: > 50000 nM

## Cc1cc(-c2[nH]nc(C(=O)NCC3CCCCN3)c2C(C)C)cn2ncnc12 (centres unmarked) [Example 56]
Human TLR7
  IC50: 4.36 nM
Human TLR8
  IC50: 3.43 nM
